Results published in ChEMBL document CHEMBL1201862, “PubChem BioAssay data set” (2004).
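A five-concentration, 48-hour dose response in 96-well plates underlies each endpoint, interpolated linearly between surrounding concentrations. The concentration for 50% growth inhibition is given as GI50.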 Calls of active or inactive are those of the source. Rule as the data show it: active = GI50 up to about 1.1 µM and inactive = higher.

What was measured:
Test in all cases: growth of human tumour cells (NCI), 48 h
[1] = test system: HCT-15
[2] = test system: HOP-92
[3] = test system: K562
[4] = test system: NCI-H226
[5] = test system: NCI-H460
[6] = test system: NCI-H522
[7] = test system: NCI/ADR-RES
[8] = test system: OVCAR-3
[9] = test system: OVCAR-4
[10] = test system: PC-3
[11] = test system: SF-539
[12] = test system: SK-OV-3
[13] = test system: SN12C
[14] = test system: SNB-75
[15] = test system: TK-10
[16] = test system: U-251
[17] = test system: UACC-62
[18] = test system: UO-31
[19] = test system: CAKI-1
[20] = test system: SK-MEL-5

SMILES	GI50 [1]	GI50 [2]	GI50 [3]	GI50 [4]	GI50 [5]	GI50 [6]	GI50 [7]	GI50 [8]	GI50 [9]	GI50 [10]	GI50 [11]	GI50 [12]	GI50 [13]	GI50 [14]	GI50 [15]	GI50 [16]	GI50 [17]	GI50 [18]	GI50 [19]	GI50 [20]
CCCC(C(=O)Nc1cccc2nc[nH]c12)C(=O)OCC (stereo unspecified)	> 100 µM	> 100 µM (inactive)	> 100 µM (inactive)	> 100 µM (inactive)	> 100 µM (inactive)	44.1 µM (inactive)	79.1 µM (inactive)	67.8 µM (inactive)	> 100 µM (inactive)	> 100 µM (inactive)	> 100 µM (inactive)	> 100 µM (inactive)	> 100 µM (inactive)	> 100 µM (inactive)	> 100 µM (inactive)	> 100 µM (inactive)	> 100 µM (inactive)	> 100 µM (inactive)	–	–
Cc1ccc(-c2n[nH]c(=O)n2N2C(=O)c3ccccc3C2=O)cc1	> 100 µM	–	> 100 µM (inactive)	> 100 µM (inactive)	> 100 µM (inactive)	> 100 µM (inactive)	> 100 µM (inactive)	> 100 µM (inactive)	–	> 100 µM (inactive)	> 100 µM (inactive)	–	> 100 µM (inactive)	> 100 µM (inactive)	> 100 µM (inactive)	> 100 µM (inactive)	> 100 µM (inactive)	> 100 µM (inactive)	> 100 µM (inactive)	> 100 µM (inactive)
O=C1c2cc3c(cc2CC12Cc1ccc4c(c1C2=O)CCC4)CCC3 (stereo unspecified)	> 100 µM	> 100 µM (inactive)	> 100 µM (inactive)	–	> 100 µM (inactive)	> 100 µM (inactive)	> 100 µM (inactive)	75.5 µM (inactive)	50.6 µM (inactive)	> 100 µM (inactive)	> 100 µM (inactive)	43.8 µM (inactive)	–	> 100 µM (inactive)	> 100 µM (inactive)	33.6 µM (inactive)	–	> 100 µM (inactive)	> 100 µM (inactive)	> 100 µM (inactive)
O=C(O)CC(O)(C(=O)O)C(O)C(=O)O (stereo unspecified)	> 1000 µM	–	> 1000 µM (inactive)	> 1000 µM (inactive)	> 1000 µM (inactive)	> 1000 µM (inactive)	> 1000 µM (inactive)	> 1000 µM (inactive)	> 1000 µM (inactive)	> 1000 µM (inactive)	> 1000 µM (inactive)	> 1000 µM (inactive)	> 1000 µM (inactive)	> 1000 µM (inactive)	> 1000 µM (inactive)	> 1000 µM (inactive)	933 µM (inactive)	–	> 1000 µM (inactive)	247 µM (inactive)
CCOC(=O)c1sc2nc(SC)nc3c2c1NCN3C	> 100 µM	11.5 µM (inactive)	–	31.7 µM (inactive)	32.1 µM (inactive)	–	19.6 µM (inactive)	> 100 µM (inactive)	20.4 µM (inactive)	> 100 µM (inactive)	–	16.1 µM (inactive)	30.6 µM (inactive)	5.78 µM (inactive)	25 µM (inactive)	20.6 µM (inactive)	42.7 µM (inactive)	11.9 µM (inactive)	22.5 µM (inactive)	51.5 µM (inactive)
CS/C1=C(\c2ccc(C)cc2)N(c2ccccc2)C(=O)C(=O)N(c2ccccc2)/C(c2ccc(C)cc2)=C(/SC)SS1	> 100 µM	> 100 µM (inactive)	> 100 µM (inactive)	–	> 100 µM (inactive)	> 100 µM (inactive)	> 100 µM (inactive)	> 100 µM (inactive)	> 100 µM (inactive)	> 100 µM (inactive)	> 100 µM (inactive)	–	> 100 µM (inactive)	> 100 µM (inactive)	> 100 µM (inactive)	> 100 µM (inactive)	> 100 µM (inactive)	> 100 µM (inactive)	> 100 µM (inactive)	–
COC(=O)CNCC1OC2OC(C)(C)OC2C1N=[N+]=[N-] (stereo unspecified)	> 100 µM	> 100 µM (inactive)	> 100 µM (inactive)	> 100 µM (inactive)	> 100 µM (inactive)	–	> 100 µM (inactive)	> 100 µM (inactive)	> 100 µM (inactive)	> 100 µM (inactive)	> 100 µM (inactive)	> 100 µM (inactive)	> 100 µM (inactive)	> 100 µM (inactive)	> 100 µM (inactive)	> 100 µM (inactive)	> 100 µM (inactive)	> 100 µM (inactive)	> 100 µM (inactive)	> 100 µM (inactive)
CSc1c(C#N)c(=O)n(N)c2[nH]nc(C)c12	> 100 µM	–	> 100 µM (inactive)	> 100 µM (inactive)	> 100 µM (inactive)	> 100 µM (inactive)	> 100 µM (inactive)	–	> 100 µM (inactive)	> 100 µM (inactive)	> 100 µM (inactive)	> 100 µM (inactive)	> 100 µM (inactive)	> 100 µM (inactive)	> 100 µM (inactive)	> 100 µM (inactive)	> 100 µM (inactive)	> 100 µM (inactive)	45.2 µM (inactive)	> 100 µM (inactive)
CSc1nncc2[nH]c(C)nc12	> 100 µM	–	> 100 µM (inactive)	> 100 µM (inactive)	–	> 100 µM (inactive)	> 100 µM (inactive)	> 100 µM (inactive)	> 100 µM (inactive)	> 100 µM (inactive)	> 100 µM (inactive)	> 100 µM (inactive)	> 100 µM (inactive)	> 100 µM (inactive)	> 100 µM (inactive)	> 100 µM (inactive)	> 100 µM (inactive)	> 100 µM (inactive)	> 100 µM (inactive)	> 100 µM (inactive)
COc1ccc(C[C@@H]2OC3(C=CC(=O)CC3Sc3ccccc3)O[C@H]2Cc2ccc(OC)cc2)cc1 (stereo partly specified)	0.993 µM	1.14 µM (inactive)	1.9 µM (inactive)	1.53 µM (inactive)	3.01 µM (inactive)	–	1.48 µM (inactive)	1.64 µM (inactive)	1.6 µM (inactive)	1.72 µM (inactive)	1.64 µM (inactive)	3.15 µM (inactive)	1.61 µM (inactive)	1.69 µM (inactive)	1.67 µM (inactive)	1.42 µM (inactive)	2.15 µM (inactive)	1.09 µM (active)	2.05 µM (inactive)	1.37 µM (inactive)
COC(=O)C1CC2CC1C1C2SC(F)(F)C1(F)F (stereo unspecified)	> 100 µM	–	–	> 100 µM (inactive)	> 100 µM (inactive)	> 100 µM (inactive)	> 100 µM (inactive)	> 100 µM (inactive)	> 100 µM (inactive)	> 100 µM (inactive)	> 100 µM (inactive)	> 100 µM (inactive)	> 100 µM (inactive)	> 100 µM (inactive)	> 100 µM (inactive)	> 100 µM (inactive)	> 100 µM (inactive)	> 100 µM (inactive)	> 100 µM (inactive)	> 100 µM (inactive)
CSC1=N/C(=C\c2ccc(C)cc2)C(=O)N1CN1CCCCC1	73.8 µM	67.3 µM (inactive)	74 µM (inactive)	> 100 µM (inactive)	–	> 100 µM (inactive)	84.7 µM (inactive)	> 100 µM (inactive)	22.4 µM (inactive)	72.4 µM (inactive)	–	> 100 µM (inactive)	> 100 µM (inactive)	69.5 µM (inactive)	> 100 µM (inactive)	> 100 µM (inactive)	> 100 µM (inactive)	37.2 µM (inactive)	–	> 100 µM (inactive)
O=C(OCCN=C1c2ccccc2CCc2ccccc21)c1ccccc1	> 100 µM	> 100 µM (inactive)	> 100 µM (inactive)	53.1 µM (inactive)	> 100 µM (inactive)	–	> 100 µM (inactive)	> 100 µM (inactive)	> 100 µM (inactive)	> 100 µM (inactive)	> 100 µM (inactive)	> 100 µM (inactive)	> 100 µM (inactive)	> 100 µM (inactive)	> 100 µM (inactive)	> 100 µM (inactive)	> 100 µM (inactive)	> 100 µM (inactive)	> 100 µM (inactive)	> 100 µM (inactive)
COc1ccc(-c2c(C(C)=O)c(C)n(C3OC(CO)C(O)C(O)C3O)c(=S)c2C#N)cc1 (stereo unspecified)	> 100 µM	–	37.8 µM (inactive)	–	> 100 µM (inactive)	–	93.5 µM (inactive)	> 100 µM (inactive)	95.5 µM (inactive)	47 µM (inactive)	36.1 µM (inactive)	> 100 µM (inactive)	50.6 µM (inactive)	80.9 µM (inactive)	> 100 µM (inactive)	47 µM (inactive)	28 µM (inactive)	> 100 µM (inactive)	> 100 µM (inactive)	48.8 µM (inactive)
NC(CCCCCP(=O)(c1ccccc1)C1C=CC=CC1)C(=O)O (stereo unspecified)	> 100 µM	> 100 µM (inactive)	> 100 µM (inactive)	–	> 100 µM (inactive)	> 100 µM (inactive)	> 100 µM (inactive)	> 100 µM (inactive)	> 100 µM (inactive)	> 100 µM (inactive)	> 100 µM (inactive)	> 100 µM (inactive)	> 100 µM (inactive)	> 100 µM (inactive)	> 100 µM (inactive)	> 100 µM (inactive)	51.2 µM (inactive)	> 100 µM (inactive)	> 100 µM (inactive)	> 100 µM (inactive)
O=C(/C=C/c1ccccc1O)/C=C/c1ccccc1O	1.45 µM	1.39 µM (inactive)	0.611 µM (active)	–	1.35 µM (inactive)	–	2.14 µM (inactive)	0.352 µM (active)	2.61 µM (inactive)	1.74 µM (inactive)	1.55 µM (inactive)	1.86 µM (inactive)	1.72 µM (inactive)	3.9 µM (inactive)	1.21 µM (inactive)	0.482 µM (active)	1.67 µM (inactive)	1.83 µM (inactive)	1.52 µM (inactive)	1.37 µM (inactive)
